# Assays:
# [1] = target: PRMT5/MEP50 protein complex (Homo sapiens (Human), UniProt O14744); assay: PRMT5 biochemical assay (3H-SAM methylation of H4(1-21) peptide, filter plate scintillation counting); conditions: PRMT5 enzyme inhibition; 10 nM PRMT5/MEP50 complex, 200 nM H4(1-21) peptide, 1 uM SAM, 25 minute incubation at room temperature
# Procedure, shortened: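 Flag-PRMT5/MEP50 was co-expressed in Sf21 cells and Flag-affinity purified. Reactions used 10 nM complex, 200 nM H4(1-21) peptide and 1 uM 3H-SAM (final) in 50 mM Tris pH 8.5, 50 mM NaCl, 5 mM MgCl2, 1 mM EDTA and 1 mM TCEP, run 25 min at room temperature. Reactions were TCA-stopped, filter-captured and scintillation-counted; IC50 came from a 4-parameter fit.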
# [2] = system: A549 lung adenocarcinoma cells; assay: A549 proliferation assay (Cell Titer Glo, 7 days); format: cell-based; conditions: Homo sapiens, 168 h, 7 days with compound, cell viability by Cell Titer Glo (ATP)
# Method: A549 lung adenocarcinoma cells (American Type CuIture Collection) were maintained in DMEM growth media (Life Technologies) supplemented with 10% v/v heat inactivated fetal bovine serum (Sigma) and cultured at 37° C., 5% CO2. Exponentially growing A549 cells were plated in 96-well black tissue culture treated plates (Corning) at a density of 2500 cells/ml in a volume of 100 μl culture media and allowed to adhere overnight at 37° C., 5% CO2. The following day, compound plates were prepared by making nine-point 3.3-fold dilutions in DMSO with a top concentration of 10 mM. Compounds were further diluted in culture media and 11 μl was added to the cells (final top assay concentration was 10 μM and DMSO was […]). Cells were incubated with compound at 37° C., 5% CO2 for 7 days with media and compound replacement on day 4. Cell viability was assayed on Day 7 by adding 100 μl Cell Titer Glo (Promega) reagent to the plate to measure the amount of ATP present in the cells. Luminescence was read using the Envision 2104 Multilabel Reader (Perkin Elmer).
# Results for the A549 proliferation assay of examples are summarized in Table 2, shown as IC50 values in μM.
# PRMT5/MEP50 protein complex, sequence (O14744 other isoform, or with tags, fused parts or gaps): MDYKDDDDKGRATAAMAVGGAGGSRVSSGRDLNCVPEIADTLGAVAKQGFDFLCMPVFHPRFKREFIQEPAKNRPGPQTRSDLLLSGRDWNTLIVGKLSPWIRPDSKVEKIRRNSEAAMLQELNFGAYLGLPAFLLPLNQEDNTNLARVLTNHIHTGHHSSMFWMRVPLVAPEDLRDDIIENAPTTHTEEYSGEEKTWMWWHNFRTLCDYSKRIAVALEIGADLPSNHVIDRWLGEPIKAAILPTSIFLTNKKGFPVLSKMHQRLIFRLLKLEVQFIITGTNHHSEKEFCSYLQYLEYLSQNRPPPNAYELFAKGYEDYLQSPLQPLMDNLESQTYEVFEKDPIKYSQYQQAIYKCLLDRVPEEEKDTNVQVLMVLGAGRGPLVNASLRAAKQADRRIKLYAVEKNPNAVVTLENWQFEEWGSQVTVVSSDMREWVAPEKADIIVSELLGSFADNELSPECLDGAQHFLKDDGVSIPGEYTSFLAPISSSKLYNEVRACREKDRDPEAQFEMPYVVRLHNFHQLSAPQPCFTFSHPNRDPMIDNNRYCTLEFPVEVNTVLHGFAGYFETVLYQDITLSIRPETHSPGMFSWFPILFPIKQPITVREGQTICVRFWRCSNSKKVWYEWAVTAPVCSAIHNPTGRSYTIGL
# PRMT5/MEP50 protein complex, sequence (Q9BQA1 whole entry partner): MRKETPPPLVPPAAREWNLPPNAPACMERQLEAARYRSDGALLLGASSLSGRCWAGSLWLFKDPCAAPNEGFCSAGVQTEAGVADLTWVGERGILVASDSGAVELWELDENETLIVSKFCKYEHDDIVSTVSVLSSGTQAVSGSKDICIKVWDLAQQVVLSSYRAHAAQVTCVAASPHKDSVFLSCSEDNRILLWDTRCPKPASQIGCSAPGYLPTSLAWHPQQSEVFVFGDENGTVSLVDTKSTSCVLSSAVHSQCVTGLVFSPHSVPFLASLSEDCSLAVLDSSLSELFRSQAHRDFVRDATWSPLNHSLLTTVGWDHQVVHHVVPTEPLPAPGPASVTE
Compound,IC50 [1],IC50 [2]
"Cc1ncnc2c1ccn2[C@@H]1O[C@H]([C@H](O)c2cc(F)cc(F)c2)[C@@H](O)[C@H]1O [Example 36, (2R,3S,4R,5R)-2-((R)-(3,5-difluorophenyl)(hydroxy)methyl)-5-(4-methyl-7H-pyrrolo[2,3-d]pyrimidin-7-yl)tetrahydrofuran-3,4-diol]",6 nM,44 nM
"Cc1cc([C@@H](O)[C@H]2O[C@@H](n3ccc4c(C)ncnc43)[C@H](O)[C@@H]2O)ccc1F [Example 10, (2R,3S,4R,5R)-2-((R)-(4-fluoro-3-methylphenyl)(hydroxy)methyl)-5-(4-methyl-7H-pyrrolo[2,3-d]pyrimidin-7-yl)tetrahydrofuran-3,4-diol]",7 nM,43 nM
"Cc1nc(C)c2ccn([C@@H]3O[C@H]([C@H](O)c4ccc(F)cc4)[C@@H](O)[C@H]3O)c2n1 [Example 99, (2R,3R,4S,5R)-2-(2,4-dimethyl-7H-pyrrolo[2,3-d]pyrimidin-7-yl)-5-((R)-(4-fluorophenyl)(hydroxy)methyl)tetrahydrofuran-3,4-diol]",21 nM,364 nM
"Nc1ncnc2c1ccn2[C@@H]1O[C@H]([C@H](O)c2ccc(F)c(F)c2)[C@@H](O)[C@H]1O [Example 85, (2R,3R,4S,5R)-2-(4-amino-7H-pyrrolo[2,3-d]pyrimidin-7-yl)-5-((R)-(3,4-difluorophenyl)(hydroxy)methyl)tetrahydrofuran-3,4-diol]",1 nM,6 nM
"Nc1ncnc2c1ccn2[C@@H]1O[C@H]([C@H](O)c2ccc(F)cc2)[C@@H](O)[C@H]1O [Example 86, (2R,3R,4S,5R)-2-(4-amino-7H-pyrrolo[2,3-d]pyrimidin-7-yl)-5-((R)-(4-fluorophenyl)(hydroxy)methyl)tetrahydrofuran-3,4-diol]",2 nM,9 nM
"Cc1nc(N)nc2c1ccn2[C@@H]1O[C@H]([C@H](O)c2ccc(F)cc2)[C@@H](O)[C@H]1O [Example 64, (2R,3R,4S,5R)-2-(2-amino-4-methyl-7H-pyrrolo[2,3-d]pyrimidin-7-yl)-5-((R)-(4-fluorophenyl)(hydroxy)methyl)tetrahydrofuran-3,4-diol]",5 nM,18 nM
"Cc1ncnc2c1ccn2[C@@H]1O[C@H]([C@@H](O)c2ccc(F)cc2)[C@@H](O)[C@H]1O [Example 39, (2R,3S,4R,5R)-2-((S)-(4-fluorophenyl)(hydroxy)methyl)-5-(4-methyl-7H-pyrrolo[2,3-d]pyrimidin-7-yl)tetrahydrofuran-3,4-diol]",1550 nM,10500 nM
"Cc1ncnc2c1c(F)cn2[C@@H]1O[C@H]([C@H](O)c2ccc(F)cc2)[C@@H](O)[C@H]1O [Example 98, (2R,3R,4S,5R)-2-(5-fluoro-4-methyl-7H-pyrrolo[2,3-d]pyrimidin-7-yl)-5-((R)-(4-fluorophenyl)(hydroxy)methyl)tetrahydrofuran-3,4-diol]",18 nM,250 nM
"Nc1ncnc2c1c(F)cn2[C@@H]1O[C@H]([C@H](O)c2ccc(F)cn2)[C@@H](O)[C@H]1O [Example 83, (2R,3R,4S,5R)-2-(4-amino-5-fluoro-7H-pyrrolo[2,3-d]pyrimidin-7-yl)-5-((R)-(5-fluoropyridin-2-yl)(hydroxy)methyl)tetrahydrofuran-3,4-diol]",13 nM,323 nM
"COc1cc([C@@H](O)[C@H]2O[C@@H](n3ccc4c(C)ncnc43)[C@H](O)[C@@H]2O)ccc1F [Example 12, (2R,3S,4R,5R)-2-((R)-(4-fluoro-3-methoxyphenyl)(hydroxy)methyl)-5-(4-methyl-7H-pyrrolo[2,3-d]pyrimidin-7-yl)tetrahydrofuran-3,4-diol]",12 nM,100 nM
"Cc1ncnc2c1ccn2[C@@H]1O[C@H]([C@H](O)c2ccc(F)c(Cl)c2)[C@@H](O)[C@H]1O [Example 11, (2R,3S,4R,5R)-2-((R)-(3-chloro-4-fluorophenyl)(hydroxy)methyl)-5-(4-methyl-7H-pyrrolo[2,3-d]pyrimidin-7-yl)tetrahydrofuran-3,4-diol]",3 nM,15 nM
"CC[C@@H](O)[C@H]1O[C@@H](n2ccc3c(C)nc(N)nc32)[C@H](O)[C@@H]1O [Example 62, (2R,3R,4S,5R)-2-(2-amino-4-methyl-7H-pyrrolo[2,3-d]pyrimidin-7-yl)-5-((R)-1-hydroxypropyl)tetrahydrofuran-3,4-diol]",52 nM,2300 nM
"O[C@@H]1[C@H](O)[C@@H]([C@H](O)c2ccc(Cl)c(F)c2)O[C@H]1n1ccc2cncnc21 [Example 115, (2R,3S,4R,5R)-2-((R)-(4-chloro-3-fluorophenyl)(hydroxy)methyl)-5-(7H-pyrrolo[2,3-d]pyrimidin-7-yl)tetrahydrofuran-3,4-diol]",2 nM,46 nM
"Cc1ncnc2c1ccn2[C@@H]1O[C@H]([C@H](O)c2ccccc2)[C@@H](O)[C@H]1O [Example 26, (2R,3S,4R,5R)-2-((R)-hydroxy(phenyl)methyl)-5-(4-methyl-7H-pyrrolo[2,3-d]pyrimidin-7-yl)tetrahydrofuran-3,4-diol]",18 nM,211 nM

# Source: US10428104B2, “Substituted nucleoside derivatives useful as anticancer agents” (Pfizer Inc., priority 2015, dated 2019)
